According to patent US7396837B2, “Antitumoral analogs of lamellarins” (Pharma Mar, S.A.U., priority 2002, dated 2008):
Read-outs that look alike come from different tables or passages of the source.

Key:
K-562 = experiment: SRB colorimetric cell growth inhibition assay, K-562; type: cell-based; settings: Homo sapiens, K562, K-562
In short: (§1)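 Human tumour cells continuously exposed to compound in 96-well culture; growth and viability quantified colorimetrically by sulforhodamine B staining. Mean ± SD from triplicate wells; GI (growth inhibition), TGI (total growth inhibition, cytostatic) and LC (cell killing, cytotoxic) parameters derived.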

PANC-1 = experiment: SRB colorimetric cell growth inhibition assay, PANC-1; type: cell-based; settings: Homo sapiens; for CC50: cell killing (cytotoxic effect), read-out: LC50 PANC-1; for IC (TGI): total growth inhibition (cytostatic effect), read-out: TGI PANC-1; for GI50: GI=growth inhibition, read-out: GI50 PANC-1
In short: as §1

DU-145 = experiment: SRB colorimetric cell growth inhibition assay, DU-145; type: cell-based; settings: Homo sapiens; for CC50: cell killing (cytotoxic effect), read-out: LC50 DU-145; for GI50: GI=growth inhibition, read-out: GI50 DU-145; for IC (TGI): total growth inhibition (cytostatic effect), read-out: TGI DU-145
In short: as §1

SK-BR-3 = experiment: SRB colorimetric cell growth inhibition assay, SK-BR-3; type: cell-based; settings: Homo sapiens; for CC50: cell killing (cytotoxic effect), read-out: LC50 SK-BR-3; for GI50: GI=growth inhibition, read-out: GI50 SK-BR-3; for IC (TGI): total growth inhibition (cytostatic effect), read-out: TGI SK-BR-3
In short: as §1

A-549 = experiment: SRB colorimetric cell growth inhibition assay, A-549; type: cell-based; settings: Homo sapiens, A549, A-549; for GI50: GI=growth inhibition, read-out: GI50 A-549; for CC50: cell killing (cytotoxic effect), read-out: LC50 A-549; for IC (TGI): total growth inhibition (cytostatic effect), read-out: TGI A-549
In short: as §1

HT-29 = experiment: SRB colorimetric cell growth inhibition assay, HT-29; type: cell-based; settings: Homo sapiens; for CC50: cell killing (cytotoxic effect), read-out: LC50 HT-29; for GI50: GI=growth inhibition, read-out: GI50 HT-29; for IC (TGI): total growth inhibition (cytostatic effect), read-out: TGI HT-29
In short: as §1

LoVo = experiment: SRB colorimetric cell growth inhibition assay, LoVo; type: cell-based; settings: Homo sapiens; for CC50: cell killing (cytotoxic effect), read-out: LC50 LOVO; for GI50: GI=growth inhibition, read-out: GI50 LOVO; for IC (TGI): total growth inhibition (cytostatic effect), read-out: TGI LOVO
In short: as §1

LoVo-Dox = experiment: SRB colorimetric cell growth inhibition assay, LoVo-Dox (MDR); type: cell-based; settings: Homo sapiens, LOVO-DOX; for GI50: GI=growth inhibition, read-out: GI50 LOVO-DOX; for CC50: cell killing (cytotoxic effect), read-out: LC50 LOVO-DOX; for IC (TGI): total growth inhibition (cytostatic effect), read-out: TGI LOVO-DOX
In short: as §1

IGROV = experiment: SRB colorimetric cell growth inhibition assay, IGROV; type: cell-based
In short: as §1

LNCaP = experiment: SRB colorimetric cell growth inhibition assay, LNCaP; type: cell-based; settings: Homo sapiens, LNCaP, LN-caP
In short: as §1

IGROV-ET = experiment: SRB colorimetric cell growth inhibition assay, IGROV-ET (ET-743 resistant); type: cell-based; settings: Homo sapiens, IGROV-ET; for GI50: GI=growth inhibition, read-out: GI50 IGROV-ET; for CC50: cell killing (cytotoxic effect), read-out: LC50 IGROV-ET; for IC (TGI): total growth inhibition (cytostatic effect), read-out: TGI IGROV-ET
In short: as §1

SK-MEL-28 = experiment: SRB colorimetric cell growth inhibition assay, SK-MEL-28; type: cell-based; settings: Homo sapiens, SK-MEL-28, MEL-28; for GI50: GI=growth inhibition, read-out: GI50 MEL-28; for CC50: cell killing (cytotoxic effect), read-out: LC50 MEL-28; for IC (TGI): total growth inhibition (cytostatic effect), read-out: TGI MEL-28
In short: as §1

human topoisomerase I = biological target: T1, human topoisomerase I (Homo sapiens, UniProt P11387); experiment: Topoisomerase I DNA relaxation assay (supercoiled plasmid DNA); type: biochemical; settings: supercoiled plasmid DNA, each compound tested at 1 μM, agarose gel with ethidium bromide
T1 sequence (P11387 1-765): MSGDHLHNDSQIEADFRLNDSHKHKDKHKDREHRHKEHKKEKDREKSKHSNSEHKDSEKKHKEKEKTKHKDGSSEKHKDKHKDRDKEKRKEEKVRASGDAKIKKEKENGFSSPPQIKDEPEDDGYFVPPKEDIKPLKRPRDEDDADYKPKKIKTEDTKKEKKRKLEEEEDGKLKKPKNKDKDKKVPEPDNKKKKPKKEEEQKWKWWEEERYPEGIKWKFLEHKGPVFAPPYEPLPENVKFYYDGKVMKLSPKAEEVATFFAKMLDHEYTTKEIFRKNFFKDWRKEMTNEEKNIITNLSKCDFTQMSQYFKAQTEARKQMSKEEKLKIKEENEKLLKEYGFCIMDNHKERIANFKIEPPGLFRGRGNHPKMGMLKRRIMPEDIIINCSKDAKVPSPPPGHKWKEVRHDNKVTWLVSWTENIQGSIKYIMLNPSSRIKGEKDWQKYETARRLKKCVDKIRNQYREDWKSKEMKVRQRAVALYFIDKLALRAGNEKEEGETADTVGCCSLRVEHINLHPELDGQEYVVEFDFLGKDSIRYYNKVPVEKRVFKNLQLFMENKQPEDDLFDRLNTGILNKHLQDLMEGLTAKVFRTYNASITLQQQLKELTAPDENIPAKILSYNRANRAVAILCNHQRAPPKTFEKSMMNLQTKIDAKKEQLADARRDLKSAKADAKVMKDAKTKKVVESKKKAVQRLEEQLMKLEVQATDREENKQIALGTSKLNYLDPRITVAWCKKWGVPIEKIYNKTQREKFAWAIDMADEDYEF
In short: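 Supercoiled plasmid DNA was relaxed by human topoisomerase I with or without test compound at 1 μM. Products were resolved by agarose gel electrophoresis with ethidium bromide staining.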

[1] = Homo sapiens, IGROV; cell killing (cytotoxic effect); read-out: LC50 IGROV

COc1cc(-c2c3n(c4c(=O)oc5cc(OC(=O)[C@H](C)NC(=O)[C@H](C)NC(=O)OC(C)(C)C)c(OC)cc5c24)CCc2cc(OC(=O)[C@H](C)NC(=O)[C@H](C)NC(=O)OC(C)(C)C)c(OC)cc2-3)ccc1OC(=O)[C@H](C)NC(=O)[C@H](C)NC(=O)OC(C)(C)C [Compound 7]
GI50 (K-562; GI=growth inhibition, read-out: GI50 K-562): 596 nM | CC50 (K-562; cell killing (cytotoxic effect), read-out: LC50 K-562): 8140 nM | IC (TGI) (K-562; total growth inhibition (cytostatic effect), read-out: TGI K-562): 2680 nM | CC50 (PANC-1; PANC-1, PANC-1): 8040 nM | IC (TGI) (PANC-1; PANC-1, PANC-1): 3310 nM | GI50 (PANC-1; PANC-1): 1360 nM | CC50 (DU-145; DU-145, DU-145): 5410 nM | GI50 (DU-145; DU-145): 993 nM | IC (TGI) (DU-145; DU-145): 2310 nM | CC50 (SK-BR-3; SK-BR-3, SK-BR-3): 5980 nM | GI50 (SK-BR-3; SK-BR-3): 1140 nM | IC (TGI) (SK-BR-3; SK-BR-3): 2610 nM | GI50 (A-549): 969 nM | CC50 (A-549): 8140 nM | IC (TGI) (A-549): 2960 nM | CC50 (HT-29; HT-29, HT-29): 8140 nM | GI50 (HT-29; HT-29): 871 nM | IC (TGI) (HT-29; HT-29): 3310 nM | CC50 (LoVo; LoVo): 8140 nM | GI50 (LoVo; LOVO): 2000 nM | IC (TGI) (LoVo; LOVO): 5050 nM | GI50 (LoVo-Dox): 3660 nM | CC50 (LoVo-Dox): 8140 nM | IC (TGI) (LoVo-Dox): 8140 nM | CC50 (IGROV; [1]): 5790 nM | GI50 (IGROV; Homo sapiens; IGROV; GI=growth inhibition; read-out: GI50 IGROV): 1230 nM | IC (TGI) (IGROV; Homo sapiens; IGROV; total growth inhibition (cytostatic effect); read-out: TGI IGROV): 2670 nM | GI50 (LNCaP; GI=growth inhibition, read-out: GI50 LN-caP): 425 nM | CC50 (LNCaP; cell killing (cytotoxic effect), read-out: LC50 LN-caP): 3610 nM | IC (TGI) (LNCaP; total growth inhibition (cytostatic effect), read-out: TGI LN-caP): 1360 nM | GI50 (IGROV-ET): 1860 nM | CC50 (IGROV-ET): 8140 nM | IC (TGI) (IGROV-ET): 4580 nM | GI50 (SK-MEL-28): 652 nM | CC50 (SK-MEL-28): 3750 nM | IC (TGI) (SK-MEL-28): 1640 nM

COc1cc(-c2c3n(c4c(=O)oc5cc(OC(=O)CCc6ccccc6)c(OC)cc5c24)CCc2cc(OC(=O)CCc4ccccc4)c(OC)cc2-3)ccc1OC(=O)CCc1ccccc1 [Compound 11]
stimulation of DNA cleavage by topoisomerase I / inhibition of topoisomerase I (nicked DNA band) in DNA relaxation assay (human topoisomerase I): inactive | GI50 (PANC-1; PANC-1, PANC-1): 214 nM | CC50 (PANC-1; PANC-1, PANC-1): 11100 nM | IC (TGI) (PANC-1; PANC-1, PANC-1): 1760 nM | GI50 (DU-145; DU-145, DU-145): 35.3 nM | CC50 (DU-145; DU-145, DU-145): 2780 nM | IC (TGI) (DU-145; DU-145, DU-145): 151 nM | GI50 (SK-BR-3; SK-BR-3, SK-BR-3): 187 nM | CC50 (SK-BR-3; SK-BR-3, SK-BR-3): 6660 nM | IC (TGI) (SK-BR-3; SK-BR-3, SK-BR-3): 1200 nM | GI50 (A-549): 128 nM | CC50 (A-549): 11100 nM | IC (TGI) (A-549): 1540 nM | GI50 (HT-29; HT-29, HT-29): 38.4 nM | CC50 (HT-29; HT-29, HT-29): 8230 nM | IC (TGI) (HT-29; HT-29, HT-29): 175 nM | GI50 (LoVo; LoVo): 42.4 nM | CC50 (LoVo; LoVo): 10400 nM | IC (TGI) (LoVo; LoVo): 1160 nM | GI50 (LoVo-Dox): 11100 nM | CC50 (LoVo-Dox): 11100 nM | IC (TGI) (LoVo-Dox): 11100 nM | GI50 (IGROV; Homo sapiens, IGROV; GI=growth inhibition; read-out: GI50 IGROV): 267 nM | CC50 (IGROV; [1]): 5880 nM | IC (TGI) (IGROV; Homo sapiens, IGROV; total growth inhibition (cytostatic effect); read-out: TGI IGROV): 1140 nM | GI50 (IGROV-ET): 5530 nM | CC50 (IGROV-ET): 11100 nM | IC (TGI) (IGROV-ET): 11100 nM | GI50 (SK-MEL-28): 200 nM | CC50 (SK-MEL-28): 6180 nM | IC (TGI) (SK-MEL-28): 1180 nM
